The values that follow come from patent US20230114241A1, “METHODS OF TREATING EPILEPSY USING THE SAME” (Trevena, Inc., priority 2019, published 2023).

Data set [1] deals with T1, human sphingosine-1-phosphate receptor 1 (S1P1) (Homo sapiens, UniProt P21453). In words: Inhibition of cAMP production (HTRF cAMP HiRange), S1P1 CHO-K1 cells. The class given is cell-based. To be noted: for Emax: CHO-K1, efficacy normalized to maximum efficacy of fingolimod, read-out: hS1P1 CAMP SPAN; for EC50: read-out: hS1P1 CAMP pEC50 (converted). The procedure, abridged: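 CHO-K1 cells co-expressing human S1P1 (C-terminal ProLink tag) and EA-β-arrestin2, plated overnight; after 30 min compound incubation at 37 °C, intracellular cAMP measured by HTRF TR-FRET following 1 h at room temperature. Values normalized to fingolimod.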
Target sequence in this assay (P21453 whole entry): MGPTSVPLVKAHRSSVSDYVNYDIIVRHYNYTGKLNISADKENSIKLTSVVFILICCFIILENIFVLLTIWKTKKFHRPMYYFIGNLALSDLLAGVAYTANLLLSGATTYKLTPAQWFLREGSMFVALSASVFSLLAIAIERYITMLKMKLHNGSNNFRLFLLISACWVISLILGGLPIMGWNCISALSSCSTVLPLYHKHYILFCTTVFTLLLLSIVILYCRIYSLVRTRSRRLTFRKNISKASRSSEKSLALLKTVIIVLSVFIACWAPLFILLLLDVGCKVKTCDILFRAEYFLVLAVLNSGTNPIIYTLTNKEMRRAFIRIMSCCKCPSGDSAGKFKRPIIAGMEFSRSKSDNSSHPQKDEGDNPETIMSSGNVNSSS

In data set [2] the target is T1, human sphingosine-1-phosphate receptor 1 (S1P1). In words: β-Arrestin2 recruitment assay (PathHunter), S1P1 CHO-K1 cells. The class given is cell-based. Conditions: for Emax: efficacy normalized to maximum efficacy of fingolimod, read-out: hS1P1 B-arrestin2 SPAN; for EC50: β-arrestin2 recruitment, read-out: hS1P1 B-arrestin2 pEC50 (converted). An outline of the steps:
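CHO-K1 cells co-expressing EA-β-arrestin2 and ProLink-tagged human S1P1 plated overnight, then stimulated 60 min at 37 °C. Enzyme-fragment complementation (β-galactosidase) detected after 1 h at room temperature by luminescence; values normalized to fingolimod.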
(In general: Recruitment of arrestin is a read-out of receptor activation apart from second messengers.)
Target sequence in this assay (P21453 whole entry): as above
Target sequence in this assay (P32121 whole entry partner): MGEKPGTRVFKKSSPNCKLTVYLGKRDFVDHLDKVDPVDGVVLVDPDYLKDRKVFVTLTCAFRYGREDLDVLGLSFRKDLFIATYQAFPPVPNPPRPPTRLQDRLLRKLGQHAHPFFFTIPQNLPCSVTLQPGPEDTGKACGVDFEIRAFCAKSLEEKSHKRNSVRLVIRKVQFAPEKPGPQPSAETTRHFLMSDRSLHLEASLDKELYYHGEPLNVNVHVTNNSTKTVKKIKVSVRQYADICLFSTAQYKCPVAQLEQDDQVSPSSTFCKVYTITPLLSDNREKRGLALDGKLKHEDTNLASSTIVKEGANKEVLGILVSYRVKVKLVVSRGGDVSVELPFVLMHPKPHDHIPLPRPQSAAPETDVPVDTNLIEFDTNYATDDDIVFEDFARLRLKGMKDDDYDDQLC

For data set [3], the system named is peripheral blood lymphocytes. In words: Lymphopenia: peripheral blood lymphocyte counts, acute and chronic s.c. dosing. The class given is in vivo. Conditions: c57bl/6 mice. The protocol:
Compounds were tested for changes in peripheral blood lymphocytes in C57bl/6 mice. In acute studies, animals (n=5/group) were dosed subcutaneously with test compound at a dose of 3 mg/kg. Animals were sacrificed at specific time points and […] of whole blood was collected in EDTA (K2) Eppendorf tubes. Blood was stored on ice and shipped immediately overnight delivery to Charles River Laboratories for analysis. CRL ran samples through their WBC/differential panel on an Advia 120 instrument. We received peripheral lymphocyte counts (10^3 cells/μl) for each blood sample. Treatment group means were compared to a vehicle treatment group for statistical significance. In chronic studies, animals (n=6-8/group) were dosed subcutaneously for three to seven days with test compound at doses that were at least 5-fold higher than the efficacious dose in pharmacology/behavioral assays. On the last day, animals were sacrificed 45 minutes to 6 hrs after the final dose. Whole blood was collected and analyzed as described for acute studies. […]

[4] abbreviates: inhibition of cAMP production, potency.
Where [5] appears, read: CHO-K1, β-arrestin2 recruitment.
The mark [6] stands for this setting: inhibition of cAMP production, S1P1.

Take `COc1cccc(-c2noc(-c3ccc4c(c3)nnn4C(C)C)n2)n1` [Compound 19, 5-[3-(6-methoxypyridin-2-yl)-1,2,4-oxadiazol-5-yl]-1-(propan-2-yl)-1H-1,2,3-benzotriazole]: the Emax in data set [1] (inhibition of cAMP production) and in data set [2] (setting [5]) was < 75% throughout. Besides, the EC50 in data set [1] (setting [4]) was > 316 nM; in data set [2] (potency), < 10000 nM. The “Lymphopenia effect (peripheral blood lymphocytes)” value (“Lymphopenia effect” for short) in data set [3] (6 mg/kg sc, 7 days) was “no change: 6 mg/kg, 7 days”.
For `COc1ccc(-c2noc(-c3ccc4c(c3)nnn4C(C)C)n2)c(C)c1` [Compound 55, 5-(1-isopropyl-1H-benzo[d][1,2,3]triazol-5-yl)-3-(4-methoxy-2-methylphenyl)-1,2,4-oxadiazole], the Emax in data set [1] (inhibition of cAMP production) and in data set [2] (setting [5]) was > 75% each time. Further, the EC50 is < 316 nM in data set [1] (setting [4]) and < 10000 nM in data set [2] (potency). Besides, in data set [3] (6 mg/kg sc, 7 days), the “Lymphopenia effect” value is on record as “no change: 6 mg/kg, 7 days”.
Regarding `Cc1ccccc1-c1noc(-c2ccc3c(c2)nnn3C(C)(C)C)n1` [Compound 59, 1-tert-butyl-5-[3-(2-methylphenyl)-1,2,4-oxadiazol-5-yl]-1H-1,2,3-benzotriazole], the Emax in data set [1] (inhibition of cAMP production) and in data set [2] (setting [5]) was > 75% each time. Besides, the EC50 in data set [1] (setting [4]) was < 316 nM; in data set [2] (potency) it was < 10000 nM. In data set [3] (6 mg/kg sc, 7 days), the “Lymphopenia effect” value is “no change: 6 mg/kg, 7 days”.
Take `CCC1(CC)CC(=O)c2cc(-c3nc(-c4cccnc4)no3)ccc2O1` [Compound 103, 2,2-diethyl-6-[3-(pyridin-3-yl)-1,2,4-oxadiazol-5-yl]-3,4-dihydro-2H-1-benzopyran-4-one]: the EC50 in data set [1] (setting [4]) is < 316 nM. Besides, the “Lymphopenia effect” value in data set [3] (6 mg/kg sc, 7 days) is “no change: 6 mg/kg, 7 days”.
For `Cc1cnccc1-c1nc(-c2ccc3c(ccn3C(C)C)c2)no1` [Compound 142, 3-(1-isopropyl-1H-indol-5-yl)-5-(3-methylpyridin-4-yl)-1,2,4-oxadiazole], the EC50 in data set [1] (setting [4]) was < 316 nM. For the same compound, in data set [3] (6 mg/kg sc, 7 days), the “Lymphopenia effect” value is “no change: 6 mg/kg, 7 days”.
As to `CCC1(CC)CC(=O)c2cc(-c3nc(-c4cccnc4OC)no3)ccc2O1` [Compound 147, 2,2-diethyl-6-(3-(2-methoxypyridin-3-yl)-1,2,4-oxadiazol-5-yl)chroman-4-one], in data set [1] (setting [4]), the EC50 was < 316 nM. Besides, the “Lymphopenia effect” value in data set [3] (6 mg/kg sc, 7 days) was “no change: 6 mg/kg, 7 days”.
With `Cc1ccsc1-c1noc(-c2ccc3c(c2)nnn3C(C)C)n1` [Compound 169, 5-[3-(3-methyl-thiophen-2-yl)-1,2,4-oxadiazol-5-yl]-1-(propan-2-yl)-1H-1,2,3-benzotriazole], the Emax in data set [1] (inhibition of cAMP production) and in data set [2] (setting [5]) was > 75% in each case. The EC50 in data set [1] (setting [4]) was < 316 nM; in data set [2] (potency) it was < 10000 nM. Further, the “Lymphopenia effect” value in data set [3] (6 mg/kg sc, 7 days) is given as “no change: 6 mg/kg, 7 days”.
`Cc1cnc(-c2nc(-c3ccc4c(c3)nnn4C(C)C)no2)cn1` [Compound 234, 3-(1-isopropyl-1H-benzo[d][1,2,3]triazol-5-yl)-5-(5-methyl-pyrazin-2-yl)-1,2,4-oxadiazole]: the Emax in data set [1] (inhibition of cAMP production) and in data set [2] (setting [5]) was < 75% throughout. In addition, the EC50 is > 316 nM in data set [1] (setting [4]) and > 10000 nM in data set [2] (potency). For the same compound, in data set [3] (6 mg/kg sc, 7 days), the “Lymphopenia effect” value is listed as “no change: 6 mg/kg, 7 days”.
In the case of `Cc1ccccc1-c1noc(-c2ccc3c(c2)nnn3C(C)C)n1` [Compound 293, 5-[3-(2-methylphenyl)-1,2,4-oxadiazol-5-yl]-1-(propan-2-yl)-1H-1,2,3-benzotriazole], the EC50 in data set [1] (setting [4]) is < 316 nM. Besides, the “Lymphopenia effect” value in data set [3] (6 mg/kg sc, 7 days) is listed as “no change: 6 mg/kg, 7 days”.
On to `CC(F)(F)CNc1ccc(-c2nnc(-c3ccc4[nH]ncc4c3)o2)cc1C#N` [Compound 355, 2-[(2,2-difluoro-propyl)amino]-5-[5-(1H-indazol-5-yl)-1,3,4-oxadiazol-2-yl]benzonitrile], for which the Emax in data set [1] (inhibition of cAMP production) and in data set [2] (setting [5]) was > 75% in each case. Further, the EC50 in data set [1] (setting [4]) was < 316 nM. Also, the “Lymphopenia effect” value in data set [3] (6 mg/kg sc, 7 days) is “no change: 6 mg/kg, 7 days”.
`CC(C)Nc1ccc(-c2nnc(-c3ccc4[nH]cnc4c3)o2)cc1C#N` [Compound 356, 5-[5-(1H-1,3-benzodiazol-5-yl)-1,3,4-oxadiazol-2-yl]-2-[(propan-2-yl)amino]benzonitrile]: the EC50 in data set [1] (setting [4]) is < 316 nM. In addition, the “Lymphopenia effect” value in data set [3] (6 mg/kg sc, 7 days) is reported as “no change: 6 mg/kg, 7 days”.
As to `CN1C(=O)CCc2cc(-c3nc(-c4cccnc4)no3)ccc21` [Compound 384, 1-methyl-6-[3-(pyridin-3-yl)-1,2,4-oxadiazol-5-yl]-1,2,3,4-tetrahydroquinolin-2-one], the Emax in data set [1] is > 75%; in data set [2] (CHO-K1), < 75%. In addition, the EC50 in data set [1] (setting [6]) is > 316 nM; in data set [2] (S1P1) it was > 10000 nM. Besides, the “Lymphopenia effect” value in data set [3] (3 mg/kg sc, 45 min and 2 hr) is “no change: 3 mg/kg; 45 min and 2 hr”.
Regarding `CC(C)n1nnc2cc(-c3nc(-c4ccncc4C(F)(F)F)no3)ccc21` [Compound 455, 1-(propan-2-yl)-5-{3-[3-(trifluoromethyl)pyridin-4-yl]-1,2,4-oxadiazol-5-yl}-1H-1,2,3-benzotriazole], the EC50 in data set [1] (setting [6]) was < 316 nM. For the same compound, the “Lymphopenia effect” value in data set [3] (6 mg/kg sc, 7 days) is given as “no change: 6 mg/kg, 7 days”.
In the case of `CC(F)(F)CNc1ccc(-c2nnc(-c3ccc4[nH]cnc4c3)o2)cc1C#N` [Compound 520, 5-[5-(1H-1,3-benzodiazol-5-yl)-1,3,4-oxadiazol-2-yl]-2-[(2,2-difluoro-propyl)amino]benzonitrile], the EC50 in data set [1] (setting [6]) was < 316 nM. Moreover, the “Lymphopenia effect” value in data set [3] (6 mg/kg sc, 7 days) is “no change: 6 mg/kg, 7 days”.
As for `CCC1(CC)CC(=O)c2cc(-c3nc(-c4ccc(NC(C)=O)cc4OC)no3)ccc2O1` [Compound 531, N-{4-[5-(2,2-diethyl-4-oxo-3,4-dihydro-2H-1-benzopyran-6-yl)-1,2,4-oxadiazol-3-yl]-3-methoxyphenyl} acetamide], the Emax in data set [1] and in data set [2] (CHO-K1) was > 75% throughout. Also, the EC50 in data set [1] (setting [6]) is < 316 nM; in data set [2] (S1P1), < 10000 nM. Also, in data set [3] (6 mg/kg sc, 7 days), the “Lymphopenia effect” value was “no change: 6 mg/kg, 7 days”.
